Laboratory results as given in patent US6375946B1, “Enhanced activation of natural killer cells using an NK cell activator and a hydrogen peroxide scavenger or inhibitor” (Maxim Pharmaceuticals, Inc., priority 1994, dated 2002).

How the values were obtained:
[1] = system: NK cells (cytotoxicity against K562 target cells); experiment: cells; conditions: for reversal of inhibition of NK cells induced by H2O2: catalase 20 U/ml, data not shown; for time of addition at which the NK cell suppressive signal is inhibited: histamine 10^−4 M or catalase 20 U/ml added at time points after assay start; for effect on NK-cell-mediated killing of tumor cells in the absence of monocytes: no monocytes, NK cells unactivated or IL-2 activated
Procedure: Using blood obtained from a healthy human blood donor, we studied the effects of catalase on NK cell-mediated killing of tumor cells. K562 cells, from an NK sensitive erythroleukemic cell line, were used as target cells in all experiments. Washed cells (10×10^6 cells/ml) were incubated with ^51Cr (Amersham) at a concentration of 150 FCi/ml cell suspension for 2-4 hours. After centrifugation and resuspension in cell culture medium, 10^4 cells in 50 FL portions were added to the effector cells in microplate wells.
In the first set of experiments, human NK cells alone (1.5×10^5 cells/well) were added to the K562 target cells. […] The cells were then exposed to catalase (Boehringer-Mannheim) at concentrations of 0 to 100 U/ml. These same conditions were repeated using human NK cells admixed with 30% human peripheral blood monocytes, recovered by centrifugal elutriation, added to the target K562 cells.
After incubation at 37EC for 16 hours, supernatant fluids were collected by a tissue collecting system (Amersham) and assayed for radioactivity in a gamma counter. Maximum ^51Cr release was determined in target cell cultures treated with Triton-X. NK cell cytotoxicity was calculated as cell lysis % according to the following formula: [formula]
To study the relationship between the monocyte-derived inhibitory signal and the respiratory burst activity of monocytes, we added catalase and various other scavengers of reactive oxygen metabolites to NK cells, alone or admixed with monocytes. We then measured the cytotoxicity of the NK cells against NK cell sensitive K562 target cells as described above.
Cell culture medium (control), histamine (10^−4 M), or catalase (20 U/ml), was added to either enriched NK cells alone or a mixture of NK cells and monocytes (1.5×10^5 cells/well). These mixtures were then incubated with K562 target cells in sextuplicate in microplates in a total volume of 200 Fl and assayed for microcytotoxicity.
Culture medium (control) or H2O2 at concentrations between 0-10 FM was added to NK cell enriched lymphocytes for assay of cytotoxicity against ^51Cr K562 target cells as described above.
MPO (100 U/ml) and H2O2 at concentrations between 0-10 FM were added to NK cell enriched lymphocytes for assay of cytotoxicity against ^51Cr K562 target cells as described above.
A mixture of enriched NK cells and monocytes were treated with culture medium (control), histamine (10^−4 M), or catalase (20 U/ml) and assayed for microcytotoxicity against target K562 cells as described above in connection with Example 1. […] The data shown is cell lysis % ±s.e.m. of sextuplicates.

[2] = system: monocytes; experiment: Luminol-enhanced chemiluminescence (respiratory burst) of elutriated monocytes; format: cell-based, human
Procedure: Formylmethionyl-leucyl-phenylalanine was dissolved to 10^−2 M in dimethyl sulfoxide and subsequently diluted in Krebs-Ringer phosphate buffer supplemented with glucose (10 mM), Ca^2+ (1 mM), and Mg^2+ (1.5 mM).
In a second set of experiments, effects of histamine and H2R-interactive compounds on the respiratory burst activity, as measured by the luminol-enhanced CL response of enriched, elutriated monocytes, were studied. Monocytes were treated with culture medium (control), histamine (10^−5 M), sodium azide (10^−5 M), or histamine and sodium azide as described below. Emission of CL was recorded after addition of fMLP at time=0.
To assess whether histamine acted by inhibiting the generation of H2O2 or by reducing the availability of peroxidase, we next studied the effects of histamine in monocytes treated with sodium azide to inhibit endogenous myeloperoxidase (MPO) and with exogenous, azide-insensitive peroxidase (HRP) in excess.
To exclude non-specific effects of ranitidine, we used a ranitidine analog (AH20239AA; […]; Glaxo) in which the thioether of ranitidine is replaced by an ether, thereby strongly reducing its H2R antagonist properties. In these experiments, monocytes were treated with histamine (10^−5 M) together with ranitidine or AH20239AA at final concentrations indicated in FIG. 7. All cells were treated with fMLP at time=0. Peak CL recorded in untreated monocytes (control) was 2.5×10^7 cpm.

[3] = system: NK cells (cytotoxicity against K562 target cells)
Procedure: In additional experiments, NK cell enriched lymphocytes were pretreated in petri dishes with culture medium (control), catalase or histamine, in the concentrations indicated below in Table II, in the presence or absence of monocytes. After 1 hour incubation, nonadherent lymphocytes were recovered, washed twice, and assayed for cytotoxicity as described above. We wished to determine whether the NK cell inhibitory signal was reversible by removal of monocytes and removal of monocyte-derived products. […] Data are cell lysis % ±s.e.m. of sextuplicates and are the results of 2 separate experiments.

[4] = system: RBC
Procedure: (§1) Further, we used an assay system in which lysis of elutriated , ^51Cr -labelled RBC was measured in microplates.

[5] = system: NK cells; experiment: IL-2-induced NK cell proliferation (3H-methyl-thymidine incorporation); format: cell-based, human; conditions: histamine 10^−4 M or catalase 20 U/ml, IL-2 50 U/ml, 48 hours
Procedure: During the last 8 hours of incubation, cells were pulsed with ^3H-methyl-thymidine (specific activity […]; New England Nuclear Corp.; 1 FCi/2×10^5 cells). Following incubation, the cells were collected on glass fiber filters with an automatic cell harvester and cell-incorporated ^3H-methyl-thymidine was estimated by liquid scintillography.

[6] = histamine 10^−4 M, cell free
Procedure: The reaction mixture contained 0.8 ml elutriated monocytes (5×10^6 cells/ml).
as §1

[7] = system: YAC-1 mouse lymphoma cells; experiment: NK cell-mediated clearance of 51Cr-labeled YAC-1 lymphoma cells from lungs in vivo; parameters: species or system Swiss Albino mice; conditions: 100 U/kg intravenously, 2 hours, four experiments
Procedure: FIG. 2 graphically depicts the activation of NK cell-mediated clearance of YAC-1 lymphoma cells in vivo by catalase. Seventy-five thousand YAC-1 cells labeled with ^51Cr were injected intravenously into male or female 4-6-week-old Swiss Albino mice, together with vehicle (control; open bars) or catalase (100 U/kg; filled bars). Two hours after the inoculation of tumor cells, the mice were sacrificed by cervical dislocation. […] Results from 4 separate experiments are shown. Each bar represents the mean “s.e.m. of 3-5 animals.
Seventy-five thousand ^51Cr-labeled, NK cell-sensitive YAC-1 mouse lymphoma cells were injected intravenously into male or female 4 to 6 week old Swiss Albino mice, together with vehicle (control) or 100 U/kg catalase. Two hours after inoculation with the tumor cells, the mice were sacrificed by cervical dislocation. The lungs were removed and placed in test tubes in a gamma-counter, and the radioactivity in the lung tissue was measured. The radioactivity in lung tissue is an inverse measure of NK cell-mediated killing of tumor cells in vivo (see Hanna et al., JNCI 65:801 (1980)), and is expressed as a percent of the ^51Cr that is retained in lungs immediately after inoculation of radiolabeled tumor cells.

For `CNC(=C[N+](=O)[O-])NCCOCc1ccc(CN(C)C)o1` [AH20239AA], the “potency relative to ranitidine in antagonizing effects of histamine on suppression of NK cell function by monocytes (fold less potent)” value [1] was “more than 100 fold” and the “potency relative to ranitidine in antagonizing inhibition of respiratory burst activity by histamine (fold less potent)” value ([2]; histamine 10^−5 M) was “more than 100 fold”.

For `CN(C)CCCSC(=N)N` [Dimaprit], the “effect on the respiratory burst of monocytes (H2R-interactive compounds)” value [2] was “mimicked the effect of histamine” and the “incubation time until effect on respiratory burst is maximal” value ([2]; data not shown) was 10 to 15 min.

In the case of `OO` [H2O2, hydrogen peroxide], the “effect on cytotoxicity of enriched NK cells” value [1] is reported as “effectively suppressed”, the EC50 ([1]; Homo sapiens, K562, read-out: ED50 of suppression of NK cell cytotoxicity) is reported as about 2 µM and the “inhibition of NK cell cytotoxicity after pretreatment and washing” value [3] is reported as “sufficient to effectively inhibit”. The “lysis of RBC” value ([4]; H2O2 5×10^−5 M, 10^5 RBC) was “approximately 50%”.

For `CC(=O)N(O)CCCCCNC(=O)CCC(=O)N(O)CCCCCNC(=O)CCC(=O)N(O)CCCCCN` [deferox, deferoxamine], the “effect on monocyte-induced inhibition of baseline NK cell cytotoxicity” value (shortened to “effect on monocyte-induced inhibition”) [1] was “ineffective”.

In the case of `NCCc1c[nH]cn1` [histamine], the “effect on monocyte-induced inhibition” value [1] is reported as “abrogated”, the “concentration at which histamine abrogates monocyte induced suppression of NK cells” value ([1]; NK cells with monocytes) is reported as “exceeding 10^−7 M” and the “reversal of inhibition of NK cells induced by H2O2” value [1] is reported as “not”. The “effect of histamine on monocyte induced suppression of NK cells in the presence of catalase” value ([1]; catalase present) was “ineffective”, the “time of addition at which the NK cell suppressive signal is inhibited” value [1] was “within the first hour” and the “reversal of monocyte-induced inhibition of IL-2-induced NK cell proliferation” value [5] was “effectively reverse”. For the same molecule, the “time to block respiratory burst activity” value ([2]; data not shown) was “within seconds”, the “effect on burst activity of unstimulated monocytes and induction of burst by fMLP” value ([2]; histamine 10^−5 M) was “effectively inhibited” and the “effect on fMLP induced CL response with sodium azide and exogenous HRP in excess” value ([2]; sodium azide 10^−5 M, HRP) was “inhibited”. The “CL recorded with H2O2 and/or MPO or H2O2 and HRP” value [6] was “unchanged” and the “effect on level of RBC killing induced by H2O2” value ([4]; histamine 10^−4 M) was “did not alter”.

With `OC[C@@H](O)[C@@H](O)[C@H](O)[C@H](O)CO` [mannitol] the “effect on monocyte-induced inhibition” value [1] was “ineffective”.

In the case of `CN(C)CCSC(=N)N` [nor-dimaprit], the “effect on the respiratory burst of monocytes (H2R-interactive compounds)” value [2] is reported as “ineffective”.

For `NCCS(=O)(=O)O` [taurin], the “effect on monocyte-induced inhibition” value [1] was “ineffective”.

For catalase, the “effect on monocyte-induced inhibition” value [1] was “completely abrogate”, the “concentration at which catalase reverses the monocyte suppressive signal” value ([1]; NK cells with monocytes) was “exceeding 10 U/ml” and the “concentration at which catalase reverses the monocyte suppressive signal” value ([1]; NK cells with monocytes, listed as Catalase) was “exceeding 5 U/ml”. For the same molecule, the “reversal of inhibition of NK cells induced by H2O2” value [1] was “completely reversed”, the “time of addition at which the NK cell suppressive signal is inhibited” value [1] was “within the first hour” and the “effect on NK-cell-mediated killing of tumor cells in the absence of monocytes” value [1] was “does not affect”. The “effect on NK-cell-mediated killing of tumor cells in the absence of monocytes” value ([1]; listed as Catalase) was “had no effect”, the “NK cell-mediated killing of YAC-1 lymphoma cells in vivo (retained lung radioactivity)” value [7] was “augmented” and the “reversal of monocyte-induced inhibition of IL-2-induced NK cell proliferation” value [5] was “effectively reverse”.

For superoxide dismutase [SOD], the “effect on monocyte-induced inhibition” value [1] was “did not alter”.

B1: myeloperoxidase (protein, UniProt P05164 165-745, looked up)
Myeloperoxidase: VTCPEQDKYRTITGMCNNRRSPTLGASNRAFVRWLPAEYEDGFSLPYGWTPGVKRNGFPVALARAVSNEIVRFPTDQLTPDQERSLMFMQWGQLLDHDLDFTPEPAARASFVTGVNCETSCVQQPPCFPLKIPPNDPRIKNQADCIPFFRSCPACPGSNITIRNQINALTSFVDASMVYGSEEPLARNLRNMSNQLGLLAVNQRFQDNGRALLPFDNLHDDPCLLTNRSARIPCFLAGDTRSSEMPELTSMHTLLLREHNRLATELKSLNPRWDGERLYQEARKIVGAMVQIITYRDYLPLVLGPTAMRKYLPTYRSYNDSVDPRIANVFTNAFRYGHTLIQPFMFRLDNRYQPMEPNPRVPLSRVFFASWRVVLEGGIDPILRGLMATPAKLNRQNQIAVDEIRERLFEQVMRIGLDLPALNMQRSRDHGLPGYNAWRRFCGLPQPETVGQLGTVLRNLKLARKLMEQYGTPNNIDIWMGGVSEPLKRKGRVGPLLACIIGTQFRKLRDGDRFWWENEGVFSMQQRQALAQISLPRIICDNTGITTVSKNNIFMSNSYPRDFVNCSTLPALNLASWREAS
For B1, the “potentiation of the suppressive effect of H2O2 on NK cells” value ([1]; MPO 100 U/ml with H2O2 0-10 FM) was “did not potentiate” and the “scavenging of H2O2” value ([1]; MPO 100 U/ml with H2O2 0-10 FM) was “slightly but significantly scavenged”.
